Where two headings read alike, the source gives them in different places.

This passage reports GI50, IC50 and cytotoxicity results from paper PMC8624998, “Synthesis and Antiproliferative Evaluation of 3-Chloroazetidin-2-ones with Antimitotic Activity: Heterocyclic Bridged Analogues of Combretastatin A-4” (Pharmaceuticals, 2021).

For assay [1], the system named is KM12. Put plainly: NCI-60 5 dose screen, Colon Cancer. The following applies: Homo sapiens. In kind it is cell-based.
Assay [2] deals with U251. Put plainly: NCI-60 5 dose screen, CNS Cancer. In kind it is cell-based. The following applies: Homo sapiens, U-251.
In assay [3] the test system is MCF-7. Put plainly: NCI-60 5 dose screen, Breast Cancer. The following applies: Homo sapiens, MCF7. In kind it is cell-based.
In assay [4] the test system is SW480 cells. The assay is described as follows: Cell viability assay, antiproliferative activity. The format is cell-based, human. The method, then:
[…]. The corresponding values for 10e in these cell lines were 161 nM (HL-60), 55 nM (SW480) and 135 nM (HT-29). […] […]. SW480 colon cells expressed low levels of the UDP-glucuronosyltransferase (UGT) protein compared to expression levels in HT-29 cells. […] […].
The human breast carcinoma cell line MCF-7 was purchased from the European Collection of Animal Cell Cultures (ECACC). Triple negative breast cancer Hs578T cells and its invasive variant Hs578Ts(i)8 were a kind gift from Dr. Susan McDonnell, School of Chemical and Bioprocess Engineering, University College Dublin. U266 cells were a gift from Dr. Tony McElligott, School of Medicine, St James’s Hospital, Trinity College Dublin. HT-29 cells were purchased from the European Collection of Cell Cultures (originating from a human adenocarcinoma of the colon). The human breast carcinoma cell line MDA-MB-231 and the HL-60 cells derived from a patient with acute myeloid leukaemia were both obtained from ECACC (Salisbury, UK). The SW-480 cells were a kind gift from Dr. Brian Flood, School of Biochemistry and Immunology, Trinity College Dublin. HEK-293T (normal epithelial embryonic kidney cells) were cultured in Dulbecco’s Modified Eagle’s Medium (DMEM) with GlutaMAXTM-I in the absence of non-essential amino acids. Human breast cancer MCF-7 cells and multiple myeloma U266 cells were cultured in Minimum Essential Media (MEM) with GlutaMAX™-I, supplemented with 1% (v/v) non-essential amino acids, 10% 2(v/v) foetal bovine serum (FBS) and 1% (v/v) penicillin/streptomycin 5000 U/mL. MDA-MB-231 cells were maintained in DMEM supplemented with 10% (v/v) foetal bovine serum, 2 mM L-glutamine and 100 μg/mL penicillin/streptomycin (complete medium). Colon cancer HT-29 and SW-480 and triple negative breast cancer Hs578T and its invasive variant Hs578T8i were cultured in DMEM with GlutaMAX™-I, with the same supplement in the absence of non-essential amino acids. Leukaemia HL-60 cancer cells were cultured in Roswell Park Memorial Institute Media (RPMI-1640) with GlutaMAX™-I, supplemented with 10% FCS media, and 100 μg/mL penicillin/streptomycin as above. Cell numbers were monitored using a haemocytometer. Cell culture flasks were incubated in a humidified incubator (5% CO2/95% air) at 37 °C. All cell lines were sub-cultured three times per week with trypsinisation using TrypLE Express (1X) required for adherent cell lines.
. All stock solutions and serial dilution in ethanol/DMSO were stored at -20 °C. All cells were seeded at a density of 2.5 × 10^4 cells/mL in a 96-well plate (200 μL per well). The cells were incubated in a […] atmosphere at 37 °C for 24 h, then treated with test compound (2 μL of stock solutions per 200-microlitre well) in ethanol to obtain a concentration range of 1 nM–200 μM for the study. The plates were then re-incubated for a further 72 h. Control wells contained an equivalent volume of the vehicle ethanol or DMSO (1% v/v). MTT cell viability assay: The culture medium was removed, and the cells were washed with phosphate buffered saline (PBS, […]). MTT (dissolved in PBS, […]) was added to obtain a final concentration of MTT (1 mg/mL). Cells were incubated at 37 °C for 3 h in the dark. Solubilisation was commenced by the addition of DMSO ([…]) and the cells were maintained at 20 °C in the dark for 20 min before reading the absorbance to ensure complete colour diffusion. The absorbance value of control cells (no added compound) was set to 100% cell viability and absorbance versus cell density per well was determined to assess cell viability using Graph-Pad Prism software. AlamarBlue cell viability assay: Cells were seeded in 96-well plates (e.g., MCF-7, 5 × 10^3 cells/well) and (HT-29 cells, 1 × 10^3 cells/well) and (HL-60 cells, 1 × 10^4 cells/well) with a total volume per well of 200 µL. After 24 h, cells were treated in triplicate with serial dilutions of CA-4 or β-lactam analogues (0.001–100 μM), medium alone or vehicle (1% ethanol (v/v)). […]

Assay [5] concerns TK-10. The assay is described as follows: NCI-60 5 dose screen, Renal Cancer. The format is cell-based. The following applies: Homo sapiens.
Assay [6] concerns SNB-19. Put plainly: NCI-60 5 dose screen, CNS Cancer. In kind it is cell-based. The note with it: Homo sapiens.
The test system of assay [7] is NCI-H23. The assay is described as follows: NCI-60 5 dose screen, NSC Lung Cancer. In kind it is cell-based. The note with it: Homo sapiens.
Assay [8] concerns T-47D. The assay is described as follows: NCI-60 5 dose screen, Breast Cancer. In kind it is cell-based. The following applies: Homo sapiens, T47D.
Assay [9] deals with MCF-7 cells. Put plainly: Lactate dehydrogenase (LDH) assay for cytotoxicity. In kind it is cell-based. The following applies: Homo sapiens, MCF7; MCF-7, compound concentration 10 μM, 24 h; read-out: Lactate Dehydrogenase assay: % cell lysis (cell death). As to the method: The toxicity and selectivity of 10n towards normal cells was investigated in the non-tumourigenic cell line HEK-293T (normal human epithelial embryonic kidney cells). […] The cytotoxic effect of selected 3-chloro-β-lactams 10e, 10f, 10i, 10n and 3,3-dichloro-β-lactams 11e and 11n in MCF-7 cells was initially determined using the lactate dehydrogenase (LDH) assay.
The cytotoxicity of selected compounds was determined using the CytoTox 96 non-radioactive cytotoxicity assay (Promega Corporation, Madison, WI, USA). Briefly, MCF-7 cells were seeded in a 96-well plate (200 μL per well), at a density of 2.5 × 10^4 cells/mL, and incubated for 24 h. The cells were then treated with selected β-lactam compounds as described above for the cell viability assay. […] Supernatant (50 μL) was removed from each well to a 96-well plate. Reconstituted ‘CytoTox 96® Reagent (50 μL) was added to each well and the plate was placed in the dark at 20 °C for 30 min. ‘Stop solution’ (50 μL) was added to each well and the samples were analysed at 490 nm using a Dynatech MR5000 plate reader. The percentage cell death at 10 μM was calculated.

Assay [10] concerns OVCAR-5. The assay is described as follows: NCI-60 5 dose screen, Ovarian Cancer. The note with it: Homo sapiens. The format is cell-based.
Assay [11] relates to SK-MEL-5. Put plainly: NCI-60 5 dose screen, Melanoma. In kind it is cell-based. The following applies: Homo sapiens.
Assay [12] deals with HT29. Put plainly: NCI-60 5 dose screen, Colon Cancer. In kind it is cell-based. The following applies: Homo sapiens, HT-29.
Assay [13] concerns SK-MEL-28. The assay is described as follows: NCI-60 5 dose screen, Melanoma. The note with it: Homo sapiens. In kind it is cell-based.
The test system of assay [14] is BT-549. Put plainly: NCI-60 5 dose screen, Breast Cancer. In kind it is cell-based. The following applies: Homo sapiens.
Setting [15] is: MCF-7, NCI screen, read-out: GI50 in MCF-7 cells.
Where [16] appears, read: Homo sapiens, SW480, 72 h; read-out: SW480 IC50.

In general, GI50 refers to the concentration giving 50% growth inhibition. Usually IC50 stands for the concentration needed to halve the response being measured. As for `COc1ccc([C@H]2[C@H](Cl)C(=O)N2c2cc(OC)c(OC)c(OC)c2)cc1` (relative stereo) [Compound 10e trans, Trans-3-chloro-1-(3,4,5-trimethoxyphenyl)-4-(4-methoxyphenyl) azetidin-2-one], the GI50 worked out at 39.3 nM in assay [1] (read-out: GI50); 37 nM in assay [2] (U251, read-out: GI50); 34 nM in assay [3] (setting [15]); 34.3 nM in assay [3] (MCF-7, read-out: GI50); 92.2 nM in assay [5] (read-out: GI50); 74.6 nM in [6] (read-out: GI50). For the same compound, the GI50 was 31.2 nM in [7] (read-out: GI50); 15800 nM in assay [8] (T-47D, read-out: GI50); 80.6 nM in [10] (read-out: GI50); 31.2 nM in assay [11] (read-out: GI50); 29.2 nM in assay [12] (HT29, read-out: GI50); 69.6 nM in [13] (read-out: GI50). Also, the GI50 in [14] (read-out: GI50) came out at 174 nM. Moreover, the IC50 in [4] (setting [16]) amounted to 55 ± 4 nM. Besides, the cytotoxicity at 10 µM in assay [9] was determined as 5%.

Regarding `COc1ccc(C2C(Cl)C(=O)N2c2cc(OC)c(OC)c(OC)c2)cc1O` (stereo not shown) [Compound 10n, 3-Chloro-4-(3-hydroxy-4-methoxy-phenyl)-1-(3,4,5-trimethoxyphenyl)azetidin-2-one], the IC50 in assay [4] (setting [16]) was 37 ± 5 nM. For the same compound, the cytotoxicity at 10 µM in assay [9] is 17%.

In the case of `COc1ccc(C2N(c3cc(OC)c(OC)c(OC)c3)C(=O)C2(Cl)Cl)cc1O` (stereo not shown) [Compound 11n, 3,3-Dichloro-4-(3-hydroxy-4-methoxyphenyl)-1-(3,4,5-trimethoxyphenyl)azetidin-2-one], the GI50 came to 31.8 nM in assay [1]; 32.5 nM in assay [2]; 31 nM in [3]; 126 nM in assay [5]; 45.7 nM in assay [6]; 24.2 nM in assay [7]. The GI50 in assay [8] amounted to 11600 nM; in [10], 312 nM; in assay [11] it was 22.5 nM; in assay [12] it was 2780 nM; in [13], 62.9 nM; in assay [14], 39.7 nM. For the same compound, in [4] (Homo sapiens, SW480, 72 h, read-out: SW480 IC50), the half-inhibitory concentration (IC50) was 44 ± 8 nM. Also, the cytotoxicity at 10 µM in [9] was 8%.

With `CCSc1ccc(C2C(Br)C(=O)N2c2cc(OC)c(OC)c(OC)c2)cc1` (stereo not shown) [Compound 16d, 3-Bromo-4-(4-(ethylthio)phenyl)-1-(3,4,5-trimethoxyphenyl)azetidin-2-one], the GI50 in [1] (read-out: GI50) worked out at 202 nM; in assay [2] (U251, read-out: GI50), 345 nM; in [3] (setting [15]), 44 nM; in [3] (MCF-7, read-out: GI50), 44.7 nM; in [5] (read-out: GI50) it was 14300 nM; in [6] (read-out: GI50), 440 nM. The GI50 in assay [7] (read-out: GI50) turned out to be 478 nM; in [8] (T-47D, read-out: GI50), 16900 nM; in assay [10] (read-out: GI50) it was 431 nM; in assay [11] (read-out: GI50), 86.1 nM; in assay [12] (HT29, read-out: GI50) it was 351 nM; in assay [13] (read-out: GI50), 1940 nM. The GI50 in assay [14] (read-out: GI50) is 525 nM.

For `COc1ccc(/C=C\c2cc(OC)c(OC)c(OC)c2)cc1O` [CA-4, Combretastatin A-4], the half-maximal inhibitory concentration (IC50) in assay [4] (setting [16]) turned out to be 3 ± 0.8 nM. Besides, the cytotoxicity at 10 µM in assay [9] is 12%.
